Entries after “also recorded” stand apart in the source; their conditions may differ.
Columns and labels:
[1] = target: F508del-CFTR in CFBE41o– cells (Homo sapiens, UniProt Q99942); experiment: HS-YFP microfluorimetric assay of F508del-CFTR rescue (corrector activity); format: cell-based; conditions: for F508del-CFTR corrector activity compared with inh-2 (CFTR activity, primary screen): CFBE41o– cells co-expressing F508del-CFTR and HS-YFP, 24 h treatment, Figure 5; for improvement of the rescue elicited by the double combination VX-661 + VX-445 / mutant CFTR activity upon co-treatment with VX-809 or VX-445: RNF5 inhibitor 5 μM; for improvement of the rescue elicited by the double combination VX-661 + VX-445: VX-661 + VX-445 10 μM + 3 μM; for mutant CFTR activity upon co-treatment with VX-809 or VX-445: VX-809 3 μM, VX-445 3 μM
Outline: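 CFBE41o– cells stably co-expressing F508del-CFTR and HS-YFP were treated with compounds 24 h after seeding; VX-809 (1 μM) served as positive control. F508del-CFTR was stimulated with forskolin (20 μM) plus VX-770 (1 μM) for 25 min before iodide injection. I– influx rate was taken as initial slope (dF/dt) from an exponential fit of YFP quenching.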

[2] = target: T1, recombinant truncated RNF5 (aa 1–117) (Homo sapiens, UniProt Q99942); experiment: MicroScale Thermophoresis (MST) binding check; conditions: RED-NHS labeled RNF5 (aa 1–117); compound at maximum concentration allowed by solubility (12: 100 M [sic])
T1 construct: human RNF5 protein (aa 1–117) truncated to exclude the transmembrane domains; GST (followed by TEV protease site) (N, cleaved yes); host or cells: Escherichia coli BL21(DE3)
Excerpt: The bindings of compounds 12, 40, and 42 were initially evaluated by MicroScale Thermophoresis (MST) using a purified recombinant truncated form of RNF5 (aa 1–117), lacking the C-terminal transmembrane domains. The protein was covalently labeled with a red dye (NHS) on the primary amines (lysine residues). […] NMR experiments on the recombinant RNF5 form were further performed to test the direct binding of the three compounds to the protein with a more sensitive, label-free, independent approach. Analogs 12, 40, and 42 were tested at 50 μM in the absence and in the presence of 3 μM RNF5 (1–117) protein. […] Indeed, for all three compounds, the NMR signals of their methyls are present in the STD spectra, and in the WaterLOGSY spectra, their signals change from negative to positive in the presence of the protein, indisputably highlighting the formation of compound–protein binding events. […] It has to be noted that NMR is a very sensitive technique that allows detecting also compounds weakly binding to their target protein independent of the possible downstream biological effects. Indeed, we can speculate that compounds 40 and 42 may bind to RNF5 without inhibiting its ubiquitin ligase activity, thus not leading to mutant CFTR rescue. These compounds could even act as RNF5 activators, similar to analog-1.
A construct coding for human RNF5 protein (aa 1–117) truncated to exclude the transmembrane domains, with an N-terminal GST-tag followed by the recognition site for TEV protease (pET vector backbone), was purchased from CliniSciences. A similar construct was recently described in the work of Ruan et al.[44] […]
Purified RNF5 was labeled using a Monolith protein labeling kit RED-NHS 2nd generation (NanoTemper Technologies, München, Germany) following manufacturer’s instructions. Labeled protein (5 nM) was first tested in a pre-test assay for optimal fluorescence, absence of aggregation, and sticking to capillaries using MST buffer [PBS, 0.05% Tween-20, 0.1% PEG-8000, 1 μM ZnCl2] with or without 1 mM DTT. […]

T1 sequence (Q99942 1-117): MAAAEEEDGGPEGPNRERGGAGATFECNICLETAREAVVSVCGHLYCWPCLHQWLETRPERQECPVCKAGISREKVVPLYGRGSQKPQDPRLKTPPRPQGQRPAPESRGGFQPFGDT
Chain of F508del-CFTR in CFBE41o– cells (Q99942 2-180): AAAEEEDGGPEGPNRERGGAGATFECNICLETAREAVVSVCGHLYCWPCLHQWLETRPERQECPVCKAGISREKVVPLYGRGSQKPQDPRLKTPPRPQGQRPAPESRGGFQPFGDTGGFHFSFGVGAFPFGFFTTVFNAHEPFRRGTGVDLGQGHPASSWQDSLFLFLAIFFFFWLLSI
Chain of F508del-CFTR in CFBE41o– cells (P13569 with tags, fused parts or gaps DEL508-508 partner): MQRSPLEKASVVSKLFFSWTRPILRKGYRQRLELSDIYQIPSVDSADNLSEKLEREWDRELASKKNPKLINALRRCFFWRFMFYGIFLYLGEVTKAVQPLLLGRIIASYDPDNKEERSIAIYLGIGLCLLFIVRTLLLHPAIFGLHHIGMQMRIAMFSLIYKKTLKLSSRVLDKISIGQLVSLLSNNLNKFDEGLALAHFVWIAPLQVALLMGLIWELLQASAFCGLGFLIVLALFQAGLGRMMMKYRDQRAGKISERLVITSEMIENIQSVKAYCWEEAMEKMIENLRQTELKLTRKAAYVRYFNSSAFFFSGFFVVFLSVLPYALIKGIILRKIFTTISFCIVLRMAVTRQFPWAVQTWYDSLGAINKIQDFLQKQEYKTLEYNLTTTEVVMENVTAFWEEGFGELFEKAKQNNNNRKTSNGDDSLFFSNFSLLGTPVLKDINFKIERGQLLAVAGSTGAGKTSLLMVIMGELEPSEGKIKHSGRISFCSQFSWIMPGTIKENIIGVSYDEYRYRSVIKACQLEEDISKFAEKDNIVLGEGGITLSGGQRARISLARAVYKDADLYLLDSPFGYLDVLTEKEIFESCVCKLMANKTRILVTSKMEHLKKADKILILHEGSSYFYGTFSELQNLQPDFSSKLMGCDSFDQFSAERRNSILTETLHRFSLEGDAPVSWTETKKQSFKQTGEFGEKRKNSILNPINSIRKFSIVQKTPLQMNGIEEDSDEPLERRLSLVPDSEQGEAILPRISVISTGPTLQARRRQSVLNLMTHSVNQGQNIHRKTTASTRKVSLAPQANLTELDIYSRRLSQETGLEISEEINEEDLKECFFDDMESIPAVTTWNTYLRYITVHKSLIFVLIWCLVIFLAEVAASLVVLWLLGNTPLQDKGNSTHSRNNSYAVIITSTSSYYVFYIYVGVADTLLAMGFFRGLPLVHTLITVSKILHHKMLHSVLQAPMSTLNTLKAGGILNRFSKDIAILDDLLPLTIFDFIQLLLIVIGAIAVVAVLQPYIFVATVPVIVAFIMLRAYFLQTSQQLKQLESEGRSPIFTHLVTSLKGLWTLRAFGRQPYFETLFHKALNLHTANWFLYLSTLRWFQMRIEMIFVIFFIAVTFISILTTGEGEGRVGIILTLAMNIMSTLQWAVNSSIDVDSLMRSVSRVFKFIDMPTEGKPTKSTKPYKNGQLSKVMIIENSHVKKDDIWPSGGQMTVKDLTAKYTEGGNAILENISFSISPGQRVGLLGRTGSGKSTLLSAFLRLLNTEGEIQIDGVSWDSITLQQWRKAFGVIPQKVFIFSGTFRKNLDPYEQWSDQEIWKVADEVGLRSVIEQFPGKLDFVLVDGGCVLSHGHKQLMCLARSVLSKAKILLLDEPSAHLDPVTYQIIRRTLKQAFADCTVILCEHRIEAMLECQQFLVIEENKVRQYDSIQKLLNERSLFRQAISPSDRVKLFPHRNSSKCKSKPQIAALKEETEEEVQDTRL

SMILES | F508del-CFTR corrector activity compared with inh-2 (CFTR activity, primary screen) [1] | direct binding to RNF5 by MST (binding check) [2] | improvement of the rescue elicited by the double combination VX-661 + VX-445 ([1]; CFBE41o– cells, 24 h) | mutant CFTR activity upon co-treatment with VX-809 or VX-445 ([1]; CFBE41o– cells, 24 h) | F508del-CFTR activity in cells transfected with NT or RNF5 siRNA ([1]; CFBE41o– cells, 16 5 μM alone or combined with VX-661 + VX-445 (10 μM + 3 μM), 24 h)
Cc1ns/c(=N\c2ccccn2)n1Cc1ccccc1 [Compound 42, (Z)-4-Benzyl-3-methyl-N-(pyridin-2-yl)-1,2,4-thiadiazol-5(4H)-imine] | inactive compounds; also recorded: almost inactive as CFTR correctors | observed only for compound 12 | – | – | –
Cc1ns/c(=N\C(=N\c2ccccc2)c2ccccc2)n1Cc1ccccc1 [inh-2, reference compound] | – | – | only analogue 16 was able to further improve the rescue | significantly increased mutant CFTR activity | –
Cc1ns/c(=N\C(=N\c2ccccc2)c2ccccc2)n1Cc1ccc(C(=O)O)cc1 [Compound 12, 4-(((Z)-3-Methyl-5-(((E)-phenyl(phenylimino)methyl)imino)-1,2,4-thiadiazol-4(5H)-yl)methyl)benzoic Acid] | reduced potency; also recorded: lower F508del-CFTR activity compared to inh-2 | compound 12 is binding to RNF5; also recorded: evidence of direct binding | – | – | –
Cc1ns/c(=N\C(=N\c2ccncc2)c2ccccc2)n1Cc1ccccc1 [Compound 40, (E)-N-((Z)-4-Benzyl-3-methyl-1,2,4-thiadiazol-5(4H)-ylidene)-N′-(pyridin-4-yl)benzimidamide] | inactive analogs; also recorded: almost inactive as CFTR correctors | observed only for compound 12 | – | – | –
COc1cccc(Cn2c(C)ns/c2=N\C(=N\c2ccccc2)c2ccccc2)c1 [Compound 16, (E)-N-((Z)-4-(3-Methoxybenzyl)-3-methyl-1,2,4-thiadiazol-5(4H)-ylidene)-N′-phenylbenzimidamide] | increased activity; also recorded: greater F508del-CFTR rescue than inh-2 | – | able to further improve the rescue | significantly increased mutant CFTR activity | increased the F508del-CFTR activity only in cells transfected with NT siRNA, but not in those transfected with RNF5 siRNA

Reference: publication PMC10388311, “Innovative Strategy toward Mutant CFTR Rescue in Cystic Fibrosis: Design and Synthesis of Thiadiazole Inhibitors of the E3 Ligase RNF5” (Journal of Medicinal Chemistry, 2023)
